From ChEMBL document CHEMBL5550210, “Discovery of Novel α,β-Unsaturated Amide Derivatives as Candidate Antifungals to Overcome Fungal Resistance” (J Med Chem, 2024)
In brackets after ≈: the same amount, converted by molar mass. Activity calls are given as the source filed them. No cut-off for these calls is given here.

Tests used:
Candida albicans [1] = experiment: Antifungal activity against Candida albicans SC5314 assessed as inhibition of fungal growth by CLSI protocol based microdilution method; type: functional
Candida parapsilosis = experiment: Antifungal activity against Candida parapsilosis ATCC 22019 assessed as inhibition of fungal growth by CLSI protocol based microdilution method; type: functional; settings: Lodderomyces parapsilosis
Candida tropicalis = experiment: Antifungal activity against Candida tropicalis CGMCC 2.3739 assessed as inhibition of fungal growth by CLSI protocol based microdilution method; type: functional
Cryptococcus neoformans = experiment: Antifungal activity against Cryptococcus neoformans CGMCC2.3161 assessed as inhibition of fungal growth by CLSI protocol based microdilution method; type: functional
Candida albicans [2] = experiment: Antifungal activity against fluconazole-resistant Candida albicans 17 assessed as inhibition of fungal growth by CLSI based microdilution method; type: functional
Candida albicans [3] = experiment: Antifungal activity against fluconazole-resistant Candida albicans 901 assessed as inhibition of fungal growth by CLSI based microdilution method; type: functional
Candida albicans [4] = experiment: Antifungal activity against Candida albicans assessed as inhibition of fungal growth by CLSI protocol based microdilution method; type: functional
Candida albicans [5] = experiment: Fungicidal activity against Candida albicans assessed as inhibition of fungal growth measured after 48 hrs by CLSI protocol based microdilution method; type: functional
Candida albicans [6] = experiment: Ratio of MFC for fungicidal activity against Candida albicans to MIC for antifungal activity against Candida albicans; type: functional
[7] = target: Voltage-gated inwardly rectifying potassium channel KCNH2 (Homo sapiens, UniProt Q12809); experiment: Inhibition of hERG1; type: toxicity
[8] = target: T1, Voltage-gated inwardly rectifying potassium channel KCNH6 (Homo sapiens, UniProt Q9H252); experiment: Inhibition of hERG2; type: toxicity
T1 sequence (Q9H252 whole entry): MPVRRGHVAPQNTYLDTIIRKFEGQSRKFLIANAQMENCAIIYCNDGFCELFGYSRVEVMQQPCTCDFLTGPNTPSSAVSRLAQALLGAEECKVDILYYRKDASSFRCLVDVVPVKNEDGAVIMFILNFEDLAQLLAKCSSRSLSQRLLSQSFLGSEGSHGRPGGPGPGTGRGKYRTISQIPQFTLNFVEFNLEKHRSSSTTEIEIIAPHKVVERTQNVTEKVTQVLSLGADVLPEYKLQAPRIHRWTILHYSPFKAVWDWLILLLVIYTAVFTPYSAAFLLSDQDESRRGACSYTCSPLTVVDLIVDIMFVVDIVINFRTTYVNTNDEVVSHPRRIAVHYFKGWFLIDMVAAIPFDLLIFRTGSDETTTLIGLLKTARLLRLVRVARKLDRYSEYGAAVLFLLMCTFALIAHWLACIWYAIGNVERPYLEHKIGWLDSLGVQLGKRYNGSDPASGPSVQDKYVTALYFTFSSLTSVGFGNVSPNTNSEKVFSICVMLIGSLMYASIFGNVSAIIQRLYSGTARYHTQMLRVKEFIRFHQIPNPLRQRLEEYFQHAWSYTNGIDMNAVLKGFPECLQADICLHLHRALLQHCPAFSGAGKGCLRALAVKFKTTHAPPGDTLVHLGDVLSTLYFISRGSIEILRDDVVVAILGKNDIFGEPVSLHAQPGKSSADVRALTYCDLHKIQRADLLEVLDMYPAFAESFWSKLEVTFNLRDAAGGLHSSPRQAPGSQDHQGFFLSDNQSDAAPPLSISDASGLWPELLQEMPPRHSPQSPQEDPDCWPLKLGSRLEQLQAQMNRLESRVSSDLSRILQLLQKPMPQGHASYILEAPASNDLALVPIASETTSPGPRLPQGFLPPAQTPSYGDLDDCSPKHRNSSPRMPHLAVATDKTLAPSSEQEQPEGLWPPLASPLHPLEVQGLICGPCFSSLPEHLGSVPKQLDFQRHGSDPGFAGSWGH

J774.A1 = experiment: Cytotoxicity against mouse J774.A1 cells assessed as inhibition of cell growth incubated for 72 hrs by MTT assay; type: functional, cell-based; settings: J774.A1, 72 h
[9] = target: T2, Lanosterol 14-alpha demethylase (Candida albicans (strain SC5314 / ATCC MYA-2876) (Yeast), UniProt P10613); experiment: Inhibition of CYP51 in Candida albicans SC5314 assessed as reduction in ergosterol content at 0.031 ug/ml incubated for 24 hrs by GC-MS analysis relative to control; settings: at 0.031 µg/mL
[10] = target: T2, Lanosterol 14-alpha demethylase; experiment: Inhibition of CYP51 in Candida albicans SC5314 assessed as increase in obtusifoliol level at 0.031 ug/ml incubated for 24 hrs by GC-MS analysis relative to control; settings: at 0.031 µg/mL
[11] = target: T2, Lanosterol 14-alpha demethylase; experiment: Inhibition of CYP51 in Candida albicans SC5314 assessed as increase in eburicol level at 0.031 ug/ml incubated for 24 hrs by GC-MS analysis relative to control; settings: at 0.031 µg/mL
Candida albicans [12] = experiment: Antifungal activity against Candida albicans CPCC400616 assessed as inhibition of hyphae formation at 2 ug/ml incubated for 4 hrs by inverted microscopic analysis; type: functional, organism-based; settings: dose 2.0 µg/ml
Candida albicans [13] = experiment: Antifungal activity against fluconazole-resistant Candida albicans 904 assessed as inhibition of hyphae formation at 16 ug/ml incubated for 4 hrs by inverted microscopic analysis; type: functional, organism-based; settings: dose 16.0 µg/ml
Candida albicans [14] = experiment: Antifungal activity against fluconazole-resistant Candida albicans 904 assessed as inhibition of fungal biofilm formation incubated for 24 hrs by XTT assay; type: functional, organism-based
Candida albicans [15] = experiment: Antifungal activity against Candida albicans CPCC400616 assessed as downregulation of TEC1 gene expression at 2 ug/ml incubated for 12 hrs by RT-PCR analysis; type: functional, organism-based; settings: dose 2.0 µg/ml
Candida albicans [16] = experiment: Antifungal activity against Candida albicans CPCC400616 assessed as downregulation of CPH1 gene expression at 2 ug/ml incubated for 12 hrs by RT-PCR analysis; type: functional, organism-based; settings: dose 2.0 µg/ml
Candida albicans [17] = experiment: Antifungal activity against Candida albicans CPCC400616 assessed as downregulation of ALS3 gene expression at 2 ug/ml incubated for 12 hrs by RT-PCR analysis; type: functional, organism-based; settings: dose 2.0 µg/ml
Candida albicans [18] = experiment: Antifungal activity against fluconazole-resistant Candida albicans 904 assessed as downregulation of EFG1 gene expression at 16 ug/ml incubated for 12 hrs by RT-PCR analysis; type: functional, organism-based; settings: dose 16.0 µg/ml
Candida albicans [19] = experiment: Antifungal activity against fluconazole-resistant Candida albicans 904 assessed as downregulation of CPH1 gene expression at 16 ug/ml incubated for 12 hrs by RT-PCR analysis; type: functional, organism-based; settings: dose 16.0 µg/ml
Candida albicans [20] = experiment: Antifungal activity against fluconazole-resistant Candida albicans 904 assessed as downregulation of ALS3 gene expression at 16 ug/ml incubated for 12 hrs by RT-PCR analysis; type: functional, organism-based; settings: dose 16.0 µg/ml
Candida albicans [21] = experiment: Antifungal activity against fluconazole-resistant Candida albicans 904 assessed as downregulation of ERG11 gene expression at 16 ug/ml incubated for 16 hrs by RT-PCR analysis; type: functional, organism-based; settings: dose 16.0 µg/ml
Candida albicans [22] = experiment: Antifungal activity against fluconazole-resistant Candida albicans 904 assessed as downregulation of CDR1 gene expression at 16 ug/ml incubated for 16 hrs by RT-PCR analysis; type: functional, organism-based; settings: dose 16.0 µg/ml
Candida albicans [23] = experiment: Antifungal activity against fluconazole-resistant Candida albicans 904 assessed as downregulation of CDR2 gene expression at 16 ug/ml incubated for 16 hrs by RT-PCR analysis; type: functional, organism-based; settings: dose 16.0 µg/ml
Candida albicans [24] = experiment: Antifungal activity against fluconazole-resistant Candida albicans 904 assessed as increase in intracellular ROS production at 32 ug/ml incubated for 4 hrs by DCFH-DA probe based fluorescence spectrophotometric analysis; type: functional, organism-based; settings: dose 32.0 µg/ml

T2 sequence (P10613 whole entry): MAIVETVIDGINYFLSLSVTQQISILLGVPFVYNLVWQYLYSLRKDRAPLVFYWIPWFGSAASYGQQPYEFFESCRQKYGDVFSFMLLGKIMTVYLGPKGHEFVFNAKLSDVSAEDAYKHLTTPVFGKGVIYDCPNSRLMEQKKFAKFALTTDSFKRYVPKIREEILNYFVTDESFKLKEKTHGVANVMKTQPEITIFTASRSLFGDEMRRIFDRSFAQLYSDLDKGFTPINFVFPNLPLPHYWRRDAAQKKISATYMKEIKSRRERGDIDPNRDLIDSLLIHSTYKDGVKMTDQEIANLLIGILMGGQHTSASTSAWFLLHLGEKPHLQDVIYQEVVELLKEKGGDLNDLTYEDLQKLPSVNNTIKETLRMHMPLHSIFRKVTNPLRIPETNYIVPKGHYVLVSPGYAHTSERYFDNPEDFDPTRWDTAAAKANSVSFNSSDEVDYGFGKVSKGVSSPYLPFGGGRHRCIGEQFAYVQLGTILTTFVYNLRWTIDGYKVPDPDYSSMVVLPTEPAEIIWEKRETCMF
Voltage-gated inwardly rectifying potassium channel KCNH2, sequence (Q12809 whole entry): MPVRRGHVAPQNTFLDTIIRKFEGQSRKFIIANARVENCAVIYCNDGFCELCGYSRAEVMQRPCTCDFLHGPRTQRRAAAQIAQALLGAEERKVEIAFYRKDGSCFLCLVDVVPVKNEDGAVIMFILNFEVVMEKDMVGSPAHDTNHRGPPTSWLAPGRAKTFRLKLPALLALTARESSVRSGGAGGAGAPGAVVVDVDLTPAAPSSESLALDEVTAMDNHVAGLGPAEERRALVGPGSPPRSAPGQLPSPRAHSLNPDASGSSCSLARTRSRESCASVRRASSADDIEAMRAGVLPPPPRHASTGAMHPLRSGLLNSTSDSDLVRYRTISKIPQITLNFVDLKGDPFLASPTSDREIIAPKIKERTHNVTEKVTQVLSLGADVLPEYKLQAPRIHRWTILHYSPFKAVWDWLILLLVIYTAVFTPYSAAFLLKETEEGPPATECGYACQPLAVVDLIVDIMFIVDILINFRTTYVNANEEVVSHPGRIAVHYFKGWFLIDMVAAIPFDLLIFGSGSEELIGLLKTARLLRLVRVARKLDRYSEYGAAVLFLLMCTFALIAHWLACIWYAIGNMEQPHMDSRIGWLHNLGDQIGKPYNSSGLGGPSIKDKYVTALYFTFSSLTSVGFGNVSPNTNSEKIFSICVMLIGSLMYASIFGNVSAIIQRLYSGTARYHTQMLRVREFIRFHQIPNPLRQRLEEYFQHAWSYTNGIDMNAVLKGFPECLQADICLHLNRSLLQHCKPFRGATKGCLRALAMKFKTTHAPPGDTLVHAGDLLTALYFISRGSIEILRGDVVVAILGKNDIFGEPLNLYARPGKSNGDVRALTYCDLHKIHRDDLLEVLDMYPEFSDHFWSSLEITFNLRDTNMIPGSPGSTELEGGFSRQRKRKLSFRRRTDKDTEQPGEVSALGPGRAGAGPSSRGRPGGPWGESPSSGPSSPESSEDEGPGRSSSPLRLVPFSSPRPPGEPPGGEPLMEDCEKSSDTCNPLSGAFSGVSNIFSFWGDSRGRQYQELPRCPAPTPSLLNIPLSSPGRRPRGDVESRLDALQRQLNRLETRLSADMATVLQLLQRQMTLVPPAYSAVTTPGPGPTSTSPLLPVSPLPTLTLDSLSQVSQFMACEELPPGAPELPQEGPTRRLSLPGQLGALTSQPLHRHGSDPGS

| SMILES | MIC (Candida albicans [1]) [µg/mL] | MIC (Candida parapsilosis) [µg/mL] | MIC (Candida tropicalis) [µg/mL] | MIC (Cryptococcus neoformans) [µg/mL] | MIC (Candida albicans [2]) [µg/mL] | MIC (Candida albicans [3]) [µg/mL] | MIC (Candida albicans [4]) [µg/mL] | MFC (Candida albicans [5]) [µg/mL] | Ratio (Candida albicans [6]) | inhibition (INH) [7] | inhibition (INH) [8] | IC50 (J774.A1) [µM] | inhibition (INH) [9] [%] | inhibition (INH) [10] | inhibition (INH) [11] | Activity (Candida albicans [12]) | Activity (Candida albicans [13]) | Activity (Candida albicans [14]) | Activity (Candida albicans [15]) | Activity (Candida albicans [16]) | also measured |
| --- | --- | --- | --- | --- | --- | --- | --- | --- | --- | --- | --- | --- | --- | --- | --- | --- | --- | --- | --- | --- | --- |
| CCCCNC(=O)/C=C/c1ccc(COC(Cn2ccnc2)c2ccc(Cl)cc2Cl)cc1 (stereo unspecified) | 0.015 (≈ 0.0318 µM) | 0.06 (≈ 0.127 µM) | 64 (≈ 135 µM) | 0.5 (≈ 1.06 µM) | 4 (≈ 8.47 µM) | 1 (≈ 2.12 µM) | 2 (≈ 4.23 µM) | 32 (≈ 67.7 µM) | 16 | Not Active | Active | 29.4 | 0.67 | Active | Active | Active | Active | Dose-Dependent Effect | Active | Active | Activity (Candida albicans [17]): Active; Activity (Candida albicans [18]): Active; Activity (Candida albicans [19]): Active; Activity (Candida albicans [20]): Active; Activity (Candida albicans [21]): Active; Activity (Candida albicans [22]): Active; Activity (Candida albicans [23]): Active; Activity (Candida albicans [24]): Active |
| O=C(/C=C/c1ccc(COC(Cn2ccnc2)c2ccc(Cl)cc2Cl)cc1)Nc1ccc(Cl)cc1Cl (stereo unspecified) | 0.03 (≈ 0.0534 µM) | 0.06 (≈ 0.107 µM) | 2 (≈ 3.56 µM) | 0.5 (≈ 0.891 µM) | 0.25 (≈ 0.445 µM) | 1 (≈ 1.78 µM) | 1 (≈ 1.78 µM) | 32 (≈ 57 µM) | 32 | Active | Active | 24.6 | 1.25 | Active | Active | Active | Active | Dose-Dependent Effect | Active | Active | Activity (Candida albicans [17]): Active; Activity (Candida albicans [18]): Active; Activity (Candida albicans [19]): Active; Activity (Candida albicans [20]): Active; Activity (Candida albicans [21]): Active; Activity (Candida albicans [22]): Active; Activity (Candida albicans [23]): Active; Activity (Candida albicans [24]): Active |
